{
  "source": "patent US8039668B2",
  "about": "“Naphthalene-based inhibitors of anti-apoptotic proteins” (Burnham Institute for Medical Research, priority 2008, dated 2011)",
  "key": {"[1]": {"system": "PC3ML cells", "assay": "Cell viability, ATP-LITE assay", "assay_type": "cell-based, human", "settings": "Table 3; ATP-LITE assay; heading: EC50 PC3ML; read-out: EC50 PC3ML", "procedure,_shortened": "(§1)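 Human cancer lines were seeded at 2000 (H460, H1299), 3000 (PC3) or 10,000 (RS11846) cells/well in F12 or RPMI1640 with 5% FBS. Compounds were added in 0.1% DMSO 24 h after seeding. Viability was read by ATP-LITE luminescence after 72 h and normalized to DMSO controls.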"}, "[2]": {"assay": "Liver microsomal stability", "assay_type": "in vitro ADME, rat", "settings": "Table 6; rat liver microsomes, 1 h", "excerpt": "Liver Microsomal Stability."}, "[3]": {"system": "BP3 human B-cell lymphoma cell line", "assay": "Annexin V-FITC and propidium iodide assay", "assay_type": "cell-based", "settings": "Annexin V-FITC and propidium iodide assay, read-out: EC50 BP3"}, "[4]": {"molecular_target": "Bcl-2 (Homo sapiens, UniProt P10415)", "sequence (P10415 whole entry)": "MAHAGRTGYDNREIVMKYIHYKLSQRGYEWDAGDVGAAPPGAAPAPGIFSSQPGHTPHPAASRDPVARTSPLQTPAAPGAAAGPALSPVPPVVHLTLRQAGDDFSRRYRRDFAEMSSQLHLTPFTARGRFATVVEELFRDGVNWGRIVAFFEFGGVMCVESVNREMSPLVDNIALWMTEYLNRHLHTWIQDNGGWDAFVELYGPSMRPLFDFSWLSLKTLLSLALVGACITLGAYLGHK", "assay": "Competitive fluorescence polarization assay (FPA), Bim BH3 peptide", "assay_type": "binding"}, "[5]": {"system": "BCL-2 transgenic mice", "assay": "Oral efficacy study in BCL-2 transgenic mice, QDx5 for 3 weeks", "settings": "low dose 0.06 mmol/kg oral", "procedure": "The volume of administration was 10 ml/kg, i.e., typically 0.2 mL per 20 gm mouse. […] Age-matched, sex-matched mice were typically dosed 5 times weekly, using a regiment of daily dosing 5 consecutive days (Monday through Friday), followed by resting for 2 days, before resuming dosing. […] At conclusion of treatments, mice were sacrificed via intra-peritoneal (i.p.) injection of 0.7 ml of Avertin and whole blood was collected into Yellow-Top Serum Separator tubes (Becton Dickinson Vacutainer Systems Becton Dickinson and Company, Franklin Lakes, N.J. 07417-1885). Spleens were removed and weighed.\nAge-matched and sex-matched BCL-2 transgenic mice were used for efficacy studies. BCL-2 transgenic mice spontaneously developed low grade B-cell lymphoma as characterized by splenomegaly, as a function of time. In BCL-2 transgenic mice, the disease progression can be divided into two stages; at the first stage, the disease is characterized by splenomegaly as a result of expansion of B-cells in spleen due to over-expressed BCL-2 in B6 mice, and at the second stage, another genetic hit(s) may strike, resulting in disseminated lymphoma as characterized by bulky lymphadenopathy as well as splenomegaly.\nIn this study, BCL-2 transgenic mice at the first stage were used for this efficacy study. […] At conclusion of treatment, BCL-2 transgenic mice were sacrificed via intraperitoneal injection of 0.7 ml of avertin (anesthetic solution) and spleen was removed and weighed. Splenocytes were isolated by the use of mouse erythrocyte lysing kit (RD Systems). Total splenocyte count was determined by trypane blue exclusion assays. % B-cell count was determined by FACS analysis after staining cells with CD-5, a B-cell marker."}, "[6]": {"assay": "PAMPA cell membrane permeability", "assay_type": "in vitro ADME", "settings": "Table 11; Low/Medium, not defined", "excerpt": "PAMPA is parallel artificial membrane permeation assay."}, "[7]": {"system": "H460 human lung cell line", "assay": "Cell viability, ATP-LITE assay", "assay_type": "cell-based", "settings": "ATP-LITE assay, read-out: EC50 H460", "procedure,_shortened": "as §1"}, "[8]": {"system": "B6Bcl-2 transgenic mice", "procedure,_shortened": "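B6 line BCL-2 transgenic mice (human BCL-2 fused to IgH locus/enhancer, Balb/c background) sacrificed 24 h post-treatment by lethal i.p. Avertin. Spleen removed and weighed, fixed 3 days in z-FIX for H&E and TUNEL histology.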"}, "[9]": {"assay": "Chemical stability of solid compounds at room temperature (HPLC, LCMS)", "settings": "in air, Apogossypol in the absence of ascorbic acid", "excerpt": "The stability of compound was monitored using a combination of HPLC and LCMS."}, "[10]": {"molecular_target": "T1, Bfl-1 (Homo sapiens, UniProt Q16548)", "T1 sequence (Q16548 1-175)": "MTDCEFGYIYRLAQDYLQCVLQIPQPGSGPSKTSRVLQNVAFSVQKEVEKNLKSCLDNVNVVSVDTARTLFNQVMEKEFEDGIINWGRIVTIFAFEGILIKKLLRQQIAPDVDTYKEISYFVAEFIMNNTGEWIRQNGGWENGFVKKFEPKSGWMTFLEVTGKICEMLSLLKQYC", "assay": "Competitive fluorescence polarization assay (FPA)", "assay_type": "binding"}, "[11]": {"system": "human lymphoma RS11846 cell line", "assay": "Apoptosis, Annexin V-FITC and propidium iodide assay", "assay_type": "cell-based", "settings": "Table 3; Annexin V-FITC and propidium iodide assay; heading: EC50 RS11846; read-out: EC50 RS11846"}, "[12]": {"system": "Balb/c mice", "assay": "Oral toxicity of gossypol vs apogossypol in normal mice", "assay_type": "in vivo, mouse", "settings": "daily dosing studies in mice", "procedure": "Compounds or vehicle control were dosed 15 times over 3 weeks, giving compounds daily for 5 consecutive days (Monday-Friday), resting on weekends.\nSpleens were removed and weighed.\nWhole blood (250 μl) was collected in EDTA-coated glass tubes (purple top; MICROTAINER Brand Tube with EDTA, Catalogue #365973, Becton, Dickinson and Company, New Jersey 07417-1885) via either cardiac puncture or severing the brachial artery of anesthetized mice. After thorough mixing, specimens were analyzed using a VetScan HM2 (Abaxis Inc., Union City, Calif. 94587) hematology analyzer, measuring white blood cell count (WBC), red blood cell count (RBC), platelet (PLT) count, leukocyte differential (including % lymphocyte, % monocyte and % granulocyte), hematocrit (Ht), and hemoglobin (Hb).\n(Eppendorf Centrifuge 5415C) for 2 minutes to separate serum from cells and fibrin clot. The resulting serum specimens were analyzed using an automated blood chemistry analyzer (“COBAS MIRA Classic”; Roche, Indianapolis, Ind. 46250-0414) to measure alanine aminotransferase (ALT) and aspartate aminotransferase AST), blood urea nitrogen (BUN), and […]."}, "[13]": {"assay": "Plasma stability", "assay_type": "in vitro ADME, rat", "procedure": "Plasma Stability. A 20 μL aliquot of a 10 mM solution in DMSO of the test compound was added to 2.0 mL of heparinized rat plasma (Lampire, P1-150N) to obtain a 100 μM final solution. The mixture was incubated for 1 h at 37.5° C. Aliquots of 100 μL were taken (0, 30 min, 1 h) and diluted with 200 μL of MeOH containing internal standard."}, "[14]": {"system": "H460 cell line", "settings": "studied by other groups; cited from earlier work"}, "[15]": {"system": "HeLa cells", "assay": "HeLa cells viability assay", "assay_type": "cell-based", "settings": "Homo sapiens, Table 12", "procedure": "Relative numbers of viable cells was determined by XTT assay. Briefly, in a 96-well plate, we added 50 μl of a mixture of 1 mg/ml of XTT (2,3-bis(2-methoxy-4-nitro-5-sulfophenyl)-5-[(phenylamino)carbonyl]-2H-tetrazolium hydroxide) (Polysciences, Washington, Pa.) containing 0.025 mM PMS (phenazine methosulfate) to each well. The 96-well plates were reincubated for an additional 4 hours to allow for XTT formazan production. Then, the contents of each plate were mixed and optical densities were determined at a wavelength of 450 nm (OD450). Net OD450 was determined after subtracting OD450 of blank wells. […] Immunoblot analysis of BCL-XL was accomplished as previously described."}},
  "note": "Read-outs that look alike come from different tables or passages of the source.",
  "data": [
    {"smiles": "Cc1cc2c(C(C)C)c(O)c(O)cc2c(O)c1-c1c(C)cc2c(C(C)C)c(O)c(O)cc2c1O", "note": "[Apogossypol, 5,5′-diisopropyl-3,3′-dimethyl-2,2′-binaphthyl-1,1′,6,6′,7,7′-hexanol, reference compound]", "values": [
      {"measurement": "EC50", "setting": "[1]", "result": 10.4, "unit": "µM"},
      {"measurement": "Microsomal Stability (T = 1 h)", "setting": "[2]", "result": 64, "unit": "%"},
      {"measurement": "EC50", "setting": "[3]", "result": 4.7, "unit": "µM"},
      {"measurement": "EC50", "setting": "[3]; Table 3, heading: EC50 BP3", "result": 4.7, "unit": "µM"},
      {"measurement": "IC50", "setting": "[4]", "result": 4.3, "unit": "µM"},
      {"measurement": "shrinkage of spleen", "setting": "[5]", "result": "induced shrinkage of spleen to a significant extent"},
      {"measurement": "tolerability", "setting": "[5]", "result": "well tolerated"},
      {"measurement": "Cell Permeability", "setting": "[6]", "result": "Low"},
      {"measurement": "EC50", "setting": "[7]", "result": 3.5, "unit": "µM"},
      {"measurement": "EC50", "setting": "[7]; Table 3, heading: EC50 H460", "result": 3.5, "unit": "µM"},
      {"measurement": "Tox", "setting": "[8]; Bcl-2 transgenic mouse, single ip injection 72 μmol/kg", "result": 0},
      {"measurement": "percentage of maximum reduction in spleen weight (maximal biological activity)", "setting": "[8]; single ip 72 μmol/kg, maximum shrinkage no more than 50%", "result": 40, "unit": "%"},
      {"measurement": "degraded after 60 days at room temperature", "setting": "[9]", "result": "~80", "unit": "%"},
      {"measurement": "IC50", "setting": "[10]", "result": "> 10", "unit": "µM"},
      {"measurement": "EC50", "setting": "[11]", "result": 5, "unit": "µM"},
      {"measurement": "tolerated doses, times higher than gossypol", "setting": "[12]", "result": "2-4"},
      {"measurement": "degraded after 1 hour incubation in rat plasma", "setting": "[13]; 1 hour", "result": 47, "unit": "%"},
      {"measurement": "Plasma stability (T = 1 h)", "setting": "[13]; Table 6, rat plasma, 1 h", "result": 53, "unit": "%"}
    ]},
    {"smiles": "COC1=CC(c2cc3ccccc3[nH]2)=N/C1=C\\c1[nH]c(C)cc1C", "note": "[GX15-070]", "values": [
      {"measurement": "IC50", "setting": "[14]", "result": 3.85, "unit": "µM"}
    ]},
    {"smiles": "O=c1c(O)cccc2cc(O)c(O)c(O)c12", "note": "[Purpurogallin]", "values": [
      {"measurement": "IC50", "setting": "[15]", "result": 6.5, "unit": "µM"}
    ]}
  ]
}
